Source: ChEMBL document CHEMBL1201862, “PubChem BioAssay data set” (2004)
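Assay format: 96-well plates, 48-hour exposure. At the GI50, growth is halved.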 Calls of active or inactive are those of the source. Cut-off read from the data, not from the text of the source: active = GI50 up to about 1.1 µM and inactive = higher.

Key:
Assay in all cases: inhibition of tumour cell growth, NCI panel, 48 h
MDA-MB-231 = system: MDA-MB-231
NCI-H23 = system: NCI-H23
HCT-15 = system: HCT-15
NCI-H226 = system: NCI-H226
MDA-N = system: MDA-N
COLO 205 = system: COLO 205
MDA-MB-435 = system: MDA-MB-435
SNB-75 = system: SNB-75
SW-620 = system: SW-620
HCT-116 = system: HCT-116
CAKI-1 = system: CAKI-1
UO-31 = system: UO-31
LOX IMVI = system: LOX IMVI
786-0 = system: 786-0
SK-MEL-2 = system: SK-MEL-2
A549 = system: A549
HT-29 = system: HT-29
U-251 = system: U-251
A498 = system: A498
NCI/ADR-RES = system: NCI/ADR-RES

Row | SMILES | GI50 (MDA-MB-231) | GI50 (NCI-H23) | GI50 (HCT-15) [µM] | GI50 (NCI-H226) | GI50 (MDA-N) | GI50 (COLO 205) | GI50 (MDA-MB-435) | GI50 (SNB-75) | GI50 (SW-620) | GI50 (HCT-116) | GI50 (CAKI-1) | GI50 (UO-31) | GI50 (LOX IMVI) | GI50 (786-0) | GI50 (SK-MEL-2) | GI50 (A549) | GI50 (HT-29) | GI50 (U-251) | GI50 (A498) | GI50 (NCI/ADR-RES)
1 | O=P1(c2ccccc2)c2ccccc2CCc2ccccc21 | 80.7 µM (inactive) | > 100 µM (inactive) | 68.9 | > 100 µM (inactive) | 38.7 µM (inactive) | > 100 µM (inactive) | 57.7 µM (inactive) | 43.8 µM (inactive) | > 100 µM (inactive) | 53 µM (inactive) | 34.2 µM (inactive) | 53.3 µM (inactive) | > 100 µM (inactive) | > 100 µM (inactive) | 49.3 µM (inactive) | 86.5 µM (inactive) | – | – | – | –
2 | CN1C(c2ccccc2)CC(=NO)CC1c1ccccc1 (stereo unspecified) | – | 89.1 µM (inactive) | 37.9 | 74 µM (inactive) | – | 20.2 µM (inactive) | – | 59.7 µM (inactive) | 48.8 µM (inactive) | 19.3 µM (inactive) | 48.2 µM (inactive) | 26.4 µM (inactive) | 19.7 µM (inactive) | 97.9 µM (inactive) | 53.5 µM (inactive) | 40.9 µM (inactive) | 35.9 µM (inactive) | 67.6 µM (inactive) | 82 µM (inactive) | –
3 | COc1cc2c(cc1OC)C1(c3ccc(Cl)cc3)ON=C(c3ccccc3)N1CS2 (stereo unspecified) | – | > 100 µM (inactive) | > 100 | > 100 µM (inactive) | – | > 100 µM (inactive) | – | > 100 µM (inactive) | > 100 µM (inactive) | 6.37 µM (inactive) | > 100 µM (inactive) | 27.1 µM (inactive) | 30.1 µM (inactive) | > 100 µM (inactive) | > 100 µM (inactive) | > 100 µM (inactive) | 15.5 µM (inactive) | > 100 µM (inactive) | 83.2 µM (inactive) | –
4 | COc1ccc(-n2c(=O)c3nc(S)[nH]c3n(-c3ccc(OC)cc3)c2=S)cc1 | > 100 µM (inactive) | > 100 µM (inactive) | > 100 | > 100 µM (inactive) | – | > 100 µM (inactive) | > 100 µM (inactive) | > 100 µM (inactive) | > 100 µM (inactive) | > 100 µM (inactive) | > 100 µM (inactive) | > 100 µM (inactive) | > 100 µM (inactive) | > 100 µM (inactive) | > 100 µM (inactive) | > 100 µM (inactive) | > 100 µM (inactive) | > 100 µM (inactive) | > 100 µM (inactive) | > 100 µM (inactive)
5 | O=C(C[n+]1ccccc1)NNC(=O)/C(=C/c1ccc2c(c1)OCO2)NC(=O)c1ccccc1 | – | > 79.1 µM (inactive) | 28.6 | 36.7 µM (inactive) | – | > 46.1 µM (inactive) | – | 36.7 µM (inactive) | 34.8 µM (inactive) | 68.9 µM (inactive) | > 100 µM (inactive) | > 70.8 µM (inactive) | 20.6 µM (inactive) | 51.4 µM (inactive) | > 100 µM (inactive) | > 76.4 µM (inactive) | > 71.8 µM (inactive) | 28.2 µM (inactive) | > 100 µM (inactive) | –
6 | CC(C)(C)c1cc(CCCCCCCC2(CCCCCCCc3cc(C(C)(C)C)cc(C(C)(C)C)c3)OC(COCCOCCCCCC#N)C(COCCOCCCCCC#N)O2)cc(C(C)(C)C)c1 (stereo unspecified) | – | > 100 µM (inactive) | > 100 | > 100 µM (inactive) | – | > 100 µM (inactive) | – | > 100 µM (inactive) | > 100 µM (inactive) | > 100 µM (inactive) | > 100 µM (inactive) | > 100 µM (inactive) | > 100 µM (inactive) | > 100 µM (inactive) | > 100 µM (inactive) | > 100 µM (inactive) | > 100 µM (inactive) | > 100 µM (inactive) | > 100 µM (inactive) | –
7 | C[N+](C)(C)CC1CCCC(C[N+](C)(C)C)C1O (stereo unspecified) | – | > 100 µM (inactive) | > 100 | > 100 µM (inactive) | – | > 100 µM (inactive) | – | > 100 µM (inactive) | > 100 µM (inactive) | > 100 µM (inactive) | > 100 µM (inactive) | > 100 µM (inactive) | > 100 µM (inactive) | > 100 µM (inactive) | > 100 µM (inactive) | > 100 µM (inactive) | > 100 µM (inactive) | > 100 µM (inactive) | > 100 µM (inactive) | –
8 | O=C(NC1CCCCCC1)C1C(=O)N(C2CCCCCC2)C(=O)/C1=N\O (stereo unspecified) | – | 26.5 µM (inactive) | 34.4 | 35.6 µM (inactive) | – | 17.3 µM (inactive) | – | 26.6 µM (inactive) | 37.6 µM (inactive) | 17.3 µM (inactive) | 40.2 µM (inactive) | 28.4 µM (inactive) | 35.6 µM (inactive) | 32.8 µM (inactive) | 17.1 µM (inactive) | 42.8 µM (inactive) | 30.3 µM (inactive) | 18.6 µM (inactive) | 32.9 µM (inactive) | –
9 | CN(C)CC1CCCC(CN(C)C)C1OC(=O)c1ccccc1 (stereo unspecified) | – | > 100 µM (inactive) | > 100 | > 100 µM (inactive) | – | > 100 µM (inactive) | – | > 100 µM (inactive) | > 100 µM (inactive) | > 100 µM (inactive) | > 100 µM (inactive) | > 100 µM (inactive) | > 100 µM (inactive) | > 100 µM (inactive) | > 100 µM (inactive) | > 100 µM (inactive) | > 100 µM (inactive) | > 100 µM (inactive) | > 100 µM (inactive) | –
10 | Cc1cc2ncn(CC(=O)O)c2cc1C | > 100 µM (inactive) | > 100 µM (inactive) | > 100 | > 100 µM (inactive) | – | > 100 µM (inactive) | > 100 µM (inactive) | > 100 µM (inactive) | > 100 µM (inactive) | > 100 µM (inactive) | > 100 µM (inactive) | > 100 µM (inactive) | > 100 µM (inactive) | > 100 µM (inactive) | > 100 µM (inactive) | > 100 µM (inactive) | > 100 µM (inactive) | > 100 µM (inactive) | > 100 µM (inactive) | > 100 µM (inactive)
11 | CC(C)(C)C1=C(Br)C(F)(C(C)(C)C)OP1(=O)c1ccccc1 (stereo unspecified) | – | 19.5 µM (inactive) | 19.5 | 15.1 µM (inactive) | 20 µM (inactive) | 16 µM (inactive) | 16.1 µM (inactive) | 17 µM (inactive) | 17.5 µM (inactive) | 16.7 µM (inactive) | 13 µM (inactive) | 45.7 µM (inactive) | 19.3 µM (inactive) | 16.1 µM (inactive) | 20.6 µM (inactive) | 19.3 µM (inactive) | 19 µM (inactive) | 17.5 µM (inactive) | 24.8 µM (inactive) | 16.4 µM (inactive)
12 | Cc1nnc(N/N=C2\C(=O)Nc3ccccc32)n1N | – | > 100 µM (inactive) | > 100 | > 100 µM (inactive) | – | 67.5 µM (inactive) | – | > 100 µM (inactive) | > 100 µM (inactive) | > 100 µM (inactive) | > 100 µM (inactive) | > 100 µM (inactive) | > 100 µM (inactive) | > 100 µM (inactive) | > 100 µM (inactive) | > 100 µM (inactive) | > 100 µM (inactive) | > 100 µM (inactive) | > 100 µM (inactive) | –
